Results published in patent US12496291B1, “Ready-to-use non-aqueous oral solution of losartan” (Liqmeds Worldwide Limited, priority 2024, dated 2025).

Experiments:
[1] = Solubility study of losartan potassium with different solubilizers and pH modifying agent; type: physicochemical; conditions: losartan potassium 10 mg/mL, below pH 5.5, citrate buffer 50 mM plus solubilizer
Description: The solubility of losartan potassium below pH 5.5 was checked in the presence of different solubilizers and pH modifying agent.

[2] = descriptive term; cited from earlier work

- Observations (solubility of losartan potassium) [1]: insolubility
SMILES: CCCCc1nc(Cl)c(CO)n1Cc1ccc(-c2ccccc2-c2nnn[nH]2)cc1.[K] [Losartan potassium, 2-butyl-4-chloro-1-[p-(o-1H-tetrazol-5-ylphenyl)benzyl]imidazole-5-methanol monopotassium salt]
- Solubility in alcohols [2]: soluble
- Solubility in chloroform [2]: practically insoluble
- Solubility in common organic solvents, such as acetonitrile and methyl ethyl ketone [2]: slightly soluble
- Solubility in water [2]: freely soluble
